Results: US12251449B2, “Synthetic multidomain peptide biomaterials that inhibit inducible nitric oxide synthase” (William Marsh Rice University, priority 2019, dated 2025)

Key:
iNOS [1] = experiment: Anti-nitrotyrosine immunostaining of subcutaneously injected hydrogels; type: in vivo, mice; conditions: subcutaneous implants, 3 and 7 days post injection
Experimental: Subcutaneous experiments and histology. C57BL/6J female mice were purchased from The Jackson Laboratory at age 8-12 weeks for subcutaneous characterization experiments. Mice were housed under specific pathogen-free conditions in standard temperature and lighting conditions with free access to food and water, and experiments were conducted with approval of the Institutional Animal Care and Use Committee (IACUC) at Rice University and according to NIH guidelines. Mice were injected with 100 μL MDP hydrogels in each of four separate sites in the subcutaneous space of the dorsal flank after the skin was shaved and sterilized with alcohol. At days 3, 7, 14, and 21 the mice were euthanized and the dorsal skin around the entire implant was removed, fixed overnight in 10% neutral buffered formalin, processed and paraffin embedded, and finally sectioned at […] thickness for staining using standard Masson's trichrome or hematoxylin and eosin (H&E) procedures, as well as immunohistochemical analyses (e.g., anti-nitrotyrosine IHC, or α-SMA blood vessel analysis).
Immunohistochemistry staining was performed on hydrogel implant tissue sections to further study in vivo properties of the L-NIL-MDP compared to related cationic MDPs. Anti-nitrotyrosine immunostaining was used to assess relative levels of nitrosylation of tyrosine within and around the subcutaneously injected hydrogel implants as a marker of iNOS inhibition (FIGS. 7A-H). It is known that the formation of nitric oxide (NO) and other nitrogen oxides in vivo can lead to observable post-translation modifications of peptides and proteins (Ischiropoulos, 2003). For example, surface-exposed 3-nitrotyrosine can be used as a marker of cell or tissue inflammation and damage by reactive nitrogen and oxygen species such as NO (Ahsan, 2013). The higher the local levels of iNOS activity, the greater should be the density of nitrosylated tyrosine. Therefore, visualization of nitrotyrosine levels by targeted antibodies can serve as a general indication of in vivo iNOS activity, or in the case of the L-NIL-MDP, local iNOS inhibition.

[2] = reported in Aulisa et al., 2009; cited from earlier work
iNOS [3] = target: T1, iNOS (Mus musculus, UniProt P29477); experiment: iNOS knockdown in vitro Greiss assay; type: cell-based
T1 construct: endogenous in cells; host or cells: RAW 264.7 murine macrophages stimulated with LPS and IFN-gamma
T1 sequence (P29477 1-1144): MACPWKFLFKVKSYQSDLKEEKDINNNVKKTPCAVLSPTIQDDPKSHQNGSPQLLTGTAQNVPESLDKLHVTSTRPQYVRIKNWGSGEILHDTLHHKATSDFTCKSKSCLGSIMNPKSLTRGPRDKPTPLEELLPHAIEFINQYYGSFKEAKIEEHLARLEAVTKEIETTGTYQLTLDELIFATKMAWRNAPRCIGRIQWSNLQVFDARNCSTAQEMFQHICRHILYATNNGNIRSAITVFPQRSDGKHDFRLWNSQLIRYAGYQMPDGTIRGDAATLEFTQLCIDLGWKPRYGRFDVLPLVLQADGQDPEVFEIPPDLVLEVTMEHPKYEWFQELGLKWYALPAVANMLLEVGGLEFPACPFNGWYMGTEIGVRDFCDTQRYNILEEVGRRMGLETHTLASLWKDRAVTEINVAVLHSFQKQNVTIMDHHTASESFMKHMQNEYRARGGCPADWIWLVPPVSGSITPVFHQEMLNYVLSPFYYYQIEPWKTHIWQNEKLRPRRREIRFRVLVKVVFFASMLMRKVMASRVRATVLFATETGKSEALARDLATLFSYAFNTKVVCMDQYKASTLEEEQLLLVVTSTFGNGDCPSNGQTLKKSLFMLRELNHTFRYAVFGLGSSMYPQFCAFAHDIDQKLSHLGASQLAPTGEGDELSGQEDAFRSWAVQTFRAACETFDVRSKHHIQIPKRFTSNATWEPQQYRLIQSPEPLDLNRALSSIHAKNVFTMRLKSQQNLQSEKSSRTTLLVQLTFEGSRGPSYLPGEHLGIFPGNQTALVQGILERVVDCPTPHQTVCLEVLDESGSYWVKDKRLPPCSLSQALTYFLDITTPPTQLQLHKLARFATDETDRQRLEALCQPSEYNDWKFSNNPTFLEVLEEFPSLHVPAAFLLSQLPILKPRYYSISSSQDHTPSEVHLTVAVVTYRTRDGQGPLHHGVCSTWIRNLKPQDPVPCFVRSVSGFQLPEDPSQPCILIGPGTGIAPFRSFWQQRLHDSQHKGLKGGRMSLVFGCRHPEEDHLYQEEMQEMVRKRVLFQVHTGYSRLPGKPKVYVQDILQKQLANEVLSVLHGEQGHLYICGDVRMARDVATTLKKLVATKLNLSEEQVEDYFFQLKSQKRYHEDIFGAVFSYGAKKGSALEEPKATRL
Experimental: iNOS knockdown in vitro Greiss assay. To evaluate the iNOS knockdown efficacy of various materials, the following procedure was used to test % iNOS inhibition of RAW 264.7 cells stimulated with Lipopolysaccharide (LPS, Thermo Fisher Scientific, Rockford, IL) and recombinant mouse IFN-7 (Biolegend, San Diego, CA). RAW macrophages were prepared at a stock concentration of 2.5×10^6 cells/mL, and plated at 2.5×10^5 cells per well in 24-well plates. For samples testing the efficacy of 2-D surface cell culture, 200 μL of MDP hydrogels was applied to evenly coat the surface of each well before addition of cells. Each experimental condition was performed in triplicate. The following controls were included in every experiment, 1) media alone, 2) stimulated cells alone, and 3) unstimulated cells alone. To each well, stimulation media or normal media was then added based on experimental requirement. Stimulation media was prepared with LPS (final concentration 1 μg/mL) and IFN-7 (final concentration 100 U/mL). For samples testing material efficacy in solution (e.g. free L-NIL), after 6 hrs of incubation at 37° C. with 5% CO2 the desired concentration of inhibitor was added to achieve a range of concentrations between 1 μM and 1 mM.
In all cases after 24 hours from time of stimulation, samples of cell media were collected from each well after mixing media by pipetting before collection. Media samples were placed into a 96-well plate and centrifuged at 5000 rpm for 10 min. Supernatants were removed and placed in a new clear 96-well plate, and samples were immediately analyzed using a colorimetric Greiss Assay (Cayman Chemical, Ann Arbor, MI) to assess nitrite levels (Bryan & Grisham, 2007). Color was allowed to develop for 10 min following addition of Greiss reagents, and absorbance was read at 540 nm on a plate reader. Percent iNOS inhibition for each sample was calculated by first subtracting the absorbance of the media-only baseline, and then converting to a percent of maximum nitrite signal as determined by the internal standard of stimulated cells alone.

MOC1 tumors = experiment: MOC orthotopic murine model of oral cancer (Example 9); conditions: established 4-5 mm MOC1 tumors, single 30 μl intratumoral injection
Experimental: MOC orthotopic murine model of oral cancer. MOC1 tumors were established by injecting 2×10^6 cells (70%:30% cells: Matrigel®Matrix) into the maxillary vestibule of the left oral cavity in C57BL/6J mice. […] Tumor growth was monitored by tumor size measurements (in diameter) taken at least two times per week using digital calipers to measure the longest dimension (single dimension). Data was then analyzed for Kaplan-Meier survival and tumor growth curves. […] Excessive tumor burden, defined as tumor diameter reaching 12 mm, tumor ulceration, or a weight loss of greater than 20% were factors that were considered for all endpoints in tumor growth and survival data.
Statistical methods. Statistical analyses were performed using Prism 7.0 (GraphPad, San Diego, CA). Statistical analyses for Kaplan-Meier survival curves were performed using the Log-rank/Mantel-Cox test. Statistical significance for tumor growth curves was determined by a two-way ANOVA test followed by selected comparison using Tukey's multiple comparison tests with multiple comparison correction. All p values were two-sided and p values less than 0.05 were considered significant.

RAW 264.7 cells = experiment: Live-dead viability of RAW 264.7 cells on MDP hydrogels; type: cell-based, mouse; conditions: RAW macrophages on 1 wt. % hydrogel, one to three days
Experimental: Cell culture. For in vitro experiments, mouse RAW 264.7 cells (ATCC TIB-71) were grown in DMEM media supplemented with 10% Heat-Inactivated Fetal Bovine Serum (HI-FBS), L-glutamine, sodium pyruvate, and 1% penicillin-streptomycin. Cells were cultured at 37° C. with 5% CO2 and subcultured using scraping.
For 2-D culture live-dead viability studies, peptide hydrogels were pipetted into 0.4 cm^2 wells of Lab-Tek 16 well glass chamber slides (Thermo Fischer, Rochester, NY). Gels were pipetted to produce 70 μL pucks with a thickness of 1.75 mm. The gels were carefully pipetted into the bottom of each well and tapped before shear recovery to create flat gel profiles. After pipetting, the samples were allowed to shear recover for 5-10 min before adding 200 μL cell media and 10,000 RAW 264.7 cells. For each experiment time point (days 1 and 3) separate slides with duplicate gels were created. The cell media was changed every 2 days, taking care to not disturb or dislodge the gel material.
At each desired time point the following procedure was used to stain the cells for live-dead analysis. Live-dead staining solution was prepared in DPBS (Thermo Fisher Scientific, Rockford, IL) with 2 μM Calcein AM (Life Technologies), 4 μM Ethidium homodimer (Life Technologies), and 5 μg/mL Hoechst 33342 (BD Biosciences, San Jose, CA). Cell media was removed from the top of the hydrogel samples, which were then washed with PBS. Samples were then stained with 100 μL of prepared solution by incubating at 37° C. with 5% CO2 for 60 min while protected from light. After staining, the gels were removed from the glass chamber slides and placed in PBS before immediately imaging by confocal. Gels were analyzed by z-stack imaging using a Nikon A1 Confocal Microscope with a 40× water objective (405 nm blue channel laser, 488 nm green channel laser, 561 nm red channel laser). Image processing was done using NIS Elements, and Imaris Cell Counting software was used to quantify live-dead percentages.

CC(=O)N[C@@H](CCCCN)C(=O)N[C@@H](CCCCN)C(=O)N[C@@H](CO)C(=O)N[C@@H](CC(C)C)C(=O)N[C@@H](CO)C(=O)N[C@@H](CC(C)C)C(=O)N[C@@H](CO)C(=O)N[C@@H](CC(C)C)C(=O)N[C@@H](CO)C(=O)N[C@@H](CC(C)C)C(=O)N[C@@H](CO)C(=O)N[C@@H](CC(C)C)C(=O)N[C@@H](CO)C(=O)N[C@@H](CC(C)C)C(=O)N[C@@H](CCCCN)C(=O)N[C@@H](CCCCN)C(N)=O [K2-MDP, K2(SL)6K2]
nitrotyrosine staining intensity (in words) (iNOS [1]): moderate
storage modulus (G′) [2]: 200-500 Pa
free L-NIL concentration giving a comparable level of iNOS inhibition (iNOS [3]; hydrogel surface culture compared with free L-NIL in solution): < 10 µM
iNOS inhibitory activity, fold less than L-NIL-MDP (iNOS [3]; in terms of comparison to free L-NIL concentration): ~10 fold
iNOS inhibition (in words) (iNOS [3]; stimulated RAW macrophages cultured on the hydrogel): moderate
median survival (MOC1 tumors): 46 days
cell attachment, survival and proliferation (in words) (RAW 264.7 cells): highest degrees of cell attachment and proliferation
